# Assay results from ChEMBL document CHEMBL3885861, “Open TG-GATES”.
# Species on record: Rattus norvegicus
# Assay: Open TG-GATES - Regimen: Single
# Assay type: toxicity, organism-based, Sprague-Dawley
# Design: regimen Single, gender Male, age 6 weeks
# Conditions: in vivo, po, 300 mg/kg, route gavage, dose level Middle; for APTT / Bas / Eos / Fbg / Hb / Ht / Lym / MCH / MCHC / MCV / Mono / Neu / PT / Plat / RBC / Ret / WBC: tissue Blood; for KIDNEY_L / KIDNEY_R / KIDNEY_TOTAL: tissue Kidney; for LIVER: tissue Liver; for A/G / ALP / ALT / AST / BUN / CRE / Ca / Cl / DBIL / GLC / IP / LDH / Na / PL / RALB / TBIL / TC / TG / TP / gamma-GTP: tissue Plasma
compound,measurement,setting,value
NC(N)=Nc1nc(CSCCC(N)=NS(N)(=O)=O)cs1 [FAMOTIDINE],TERMINAL_BW,3 h,215.2 g
same,APTT,3 h,21.3 s
same,Bas,3 h,0%
same,Eos,3 h,1%
same,Fbg,3 h,213.2 mg/dL
same,Hb,3 h,13.4 g/dL
same,Ht,3 h,37.9%
same,Lym,3 h,76.2%
same,MCH,3 h,22.4 pg
same,MCHC,3 h,35.3%
same,MCV,3 h,63.4 fL
same,Mono,3 h,2.8%
same,Neu,3 h,17.8%
same,PT,3 h,12.6 s
same,Plat,3 h,116.7 x10_4/uL
same,RBC,3 h,598 x10_4/ul
same,Ret,3 h,7.6%
same,WBC,3 h,82 x10_2/uL
same,KIDNEY_L,3 h,1 g
same,KIDNEY_R,3 h,1 g
same,KIDNEY_TOTAL,3 h,1.9 g
same,LIVER,3 h,10.1 g
same,A/G,3 h,1.6
same,ALP,3 h,814.6 IU/L
same,ALT,3 h,34.2 IU/L
same,AST,3 h,66.4 IU/L
same,BUN,3 h,9.6 mg/dL
same,CRE,3 h,0.4 mg/dL
same,Ca,3 h,10.6 mg/dL
same,Cl,3 h,104.2 meq/L
same,DBIL,3 h,0.07 mg/dL
same,GLC,3 h,197.8 mg/dL
same,IP,3 h,9 mg/dL
same,LDH,3 h,230 IU/L
same,Na,3 h,140.8 meq/L
same,PL,3 h,146 mg/dL
same,RALB,3 h,3.4 g/dL
same,TBIL,3 h,0.1 mg/dL
same,TC,3 h,77.2 mg/dL
same,TG,3 h,69.4 mg/dL
same,TP,3 h,5.5 g/dL
same,gamma-GTP,3 h,1.2 IU/L
same,TERMINAL_BW,6 h,211.7 g
same,APTT,6 h,18.9 s
same,Bas,6 h,0%
same,Eos,6 h,1%
same,Fbg,6 h,204.6 mg/dL
same,Hb,6 h,13.5 g/dL
same,Ht,6 h,37.8%
same,Lym,6 h,75%
same,MCH,6 h,22.3 pg
same,MCHC,6 h,35.6%
same,MCV,6 h,62.7 fL
same,Mono,6 h,2.4%
same,Neu,6 h,18.4%
same,PT,6 h,12.8 s
same,Plat,6 h,109.6 x10_4/uL
same,RBC,6 h,604.4 x10_4/ul
same,Ret,6 h,7.4%
same,WBC,6 h,97.9 x10_2/uL
same,KIDNEY_L,6 h,1 g
same,KIDNEY_R,6 h,0.9 g
same,KIDNEY_TOTAL,6 h,1.9 g
same,LIVER,6 h,9 g
same,A/G,6 h,1.6
same,ALP,6 h,896.8 IU/L
same,ALT,6 h,32.8 IU/L
same,AST,6 h,66.8 IU/L
same,BUN,6 h,8.4 mg/dL
same,CRE,6 h,0.4 mg/dL
same,Ca,6 h,10.4 mg/dL
same,Cl,6 h,103.8 meq/L
same,DBIL,6 h,0.07 mg/dL
same,GLC,6 h,195 mg/dL
same,IP,6 h,9 mg/dL
same,LDH,6 h,177.2 IU/L
same,Na,6 h,140.8 meq/L
same,PL,6 h,131.2 mg/dL
same,RALB,6 h,3.2 g/dL
same,TBIL,6 h,0.1 mg/dL
same,TC,6 h,73.2 mg/dL
same,TG,6 h,46.2 mg/dL
same,TP,6 h,5.2 g/dL
same,gamma-GTP,6 h,2 IU/L
same,TERMINAL_BW,9 h,209.6 g
same,APTT,9 h,18.9 s
same,Bas,9 h,0%
same,Eos,9 h,0.8%
same,Fbg,9 h,225.4 mg/dL
same,Hb,9 h,13.4 g/dL
same,Ht,9 h,37.4%
same,Lym,9 h,76.8%
same,MCH,9 h,22.3 pg
same,MCHC,9 h,35.7%
same,MCV,9 h,62.3 fL
same,Mono,9 h,2.4%
same,Neu,9 h,19.2%
same,PT,9 h,12.1 s
same,Plat,9 h,117.6 x10_4/uL
same,RBC,9 h,601.6 x10_4/ul
same,Ret,9 h,7.2%
same,WBC,9 h,77.6 x10_2/uL
same,KIDNEY_L,9 h,0.9 g
same,KIDNEY_R,9 h,1 g
same,KIDNEY_TOTAL,9 h,1.9 g
same,LIVER,9 h,8.7 g
same,A/G,9 h,1.6
same,ALP,9 h,898 IU/L
same,ALT,9 h,26.6 IU/L
same,AST,9 h,59 IU/L
same,BUN,9 h,10 mg/dL
same,CRE,9 h,0.4 mg/dL
same,Ca,9 h,10.3 mg/dL
same,Cl,9 h,103.6 meq/L
same,DBIL,9 h,0.064 mg/dL
same,GLC,9 h,195.2 mg/dL
same,IP,9 h,8.8 mg/dL
same,LDH,9 h,125 IU/L
same,Na,9 h,140.2 meq/L
same,PL,9 h,130 mg/dL
same,RALB,9 h,3.3 g/dL
same,TBIL,9 h,0.1 mg/dL
same,TC,9 h,67.8 mg/dL
same,TG,9 h,47.6 mg/dL
same,TP,9 h,5.4 g/dL
same,gamma-GTP,9 h,0.6 IU/L
same,TERMINAL_BW,24 h,227 g
same,APTT,24 h,20.8 s
same,Bas,24 h,0%
same,Eos,24 h,1%
same,Fbg,24 h,225.8 mg/dL
same,Hb,24 h,13.4 g/dL
same,Ht,24 h,37.6%
same,Lym,24 h,78.2%
same,MCH,24 h,22.4 pg
same,MCHC,24 h,35.6%
same,MCV,24 h,63.1 fL
same,Mono,24 h,3.8%
same,Neu,24 h,15.6%
same,PT,24 h,12.1 s
same,Plat,24 h,114.2 x10_4/uL
same,RBC,24 h,596.2 x10_4/ul
same,Ret,24 h,6.6%
same,WBC,24 h,78.3 x10_2/uL
same,KIDNEY_L,24 h,1 g
same,KIDNEY_R,24 h,1 g
same,KIDNEY_TOTAL,24 h,2 g
same,LIVER,24 h,11 g
same,A/G,24 h,1.5
same,ALP,24 h,1146.8 IU/L
same,ALT,24 h,33.2 IU/L
same,AST,24 h,62.8 IU/L
same,BUN,24 h,13.2 mg/dL
same,CRE,24 h,0.4 mg/dL
same,Ca,24 h,10.5 mg/dL
same,Cl,24 h,103.6 meq/L
same,DBIL,24 h,0.074 mg/dL
same,GLC,24 h,194.2 mg/dL
same,IP,24 h,8 mg/dL
same,LDH,24 h,176.6 IU/L
same,Na,24 h,140.6 meq/L
same,PL,24 h,153 mg/dL
same,RALB,24 h,3.3 g/dL
same,TBIL,24 h,0.1 mg/dL
same,TC,24 h,82.8 mg/dL
same,TG,24 h,86.8 mg/dL
same,TP,24 h,5.6 g/dL
same,gamma-GTP,24 h,0.8 IU/L
